In US9737516B2, “Bicyclic heterocycles as bet protein inhibitors” (Incyte Corporation, priority 2013, dated 2017):
Structures can show the parent of a compound that is named as a salt.

Assays:
BRD4-BD1 = BRD4-BD1 (Homo sapiens (Human), UniProt O60885); experiment: BRD4 AlphaScreen assay (BRD4-BD1); format: binding; settings: H4Ac4 peptide, 3.8 nM BRD4-BD1, read-out: BRD4 BD-1 enzyme IC50
Procedure: (§1) BRD4-BD1 and BRD4-BD2 assays were conducted in white 384-well polystyrene plate in a final volume of 20 μL for BD1 and 40 μL for BD2. Inhibitors were first serially diluted in DMSO and added to the plate wells before the addition of other reaction components. The final concentration of DMSO in the assay was 1.25% (BD1) and 0.83% (BD2). The assays were carried out at room temperature for 75 min. in the assay buffer (50 mM HEPES, pH 7.4, 100 mM NaCl, 0.05% CHAPS, 0.01% BSA), containing 50 nM Biotin-labeled tetra-acetylated histone H4 peptide (H4Ac4), 3.8 nM (BRD4-BD1, BPS Bioscience #31040) or 20 nM (BRD4-BD2, BPS Bioscience #31041). The reaction followed by the addition of 20 μL of assay buffer supplemented with Streptavidin donor beads (PerkinElmer 6760002) and GSH Acceptor beads (PerkinElmer-AL109C) at 4 µg/mL under reduced light. After plate sealing, the plate was incubated in the dark at room temperature for 75 min. before reading on a PHERAstar FS plate reader (BMG Labtech). IC50 determination was performed by fitting the curve of percent control activity versus the log of the inhibitor concentration using the GraphPad Prism 5.0 software. IC50 data for the Examples is presented in Table 1 as determined by Assay A1.

C-myc in KMS.12.BM cells = experiment: KMS.12.BM C-myc ELISA assay; format: cell-based; settings: Homo sapiens, 2 hours
Procedure: KMS.12.BM cell line (human myeloma) was purchased from JCRB (Osaka, Japan) and maintained in RPMI with 10% FBS culture medium. To measure the C-myc inhibitory activity of the compounds, the KMS.12.BM cells are plated in the RPMI culture medium at 75000 cells/well/per 200 μL into a 96-well flat bottom polystyrene tissue culture plate (Corning through VWR, N.J.), in the presence or absence of a concentration range of test compounds. After 2 hours, cell are pelleted and lysed with Cell Extraction Buffer (BioSource, Carlsbad, Calif.) in the presence of protease inhibitors (Life Technologies, Grand Island, N.Y. and Sigma, St Louis, Mo.). Clarified lyses are tested in a C-myc commercial ELISA (Life Technologies, Grand Island, N.Y.). Compound inhibition is determined relative to cells cultured with no drug and the IC50 is reported as the compound concentration required for 50% C-myc inhibition. IC50 data for the Examples is presented in Table 3 as determined by Assay C1.

BRD4-BD2 = BRD4-BD2 (Homo sapiens (Human), UniProt O60885); experiment: BRD4 AlphaScreen assay (BRD4-BD2); format: binding; settings: H4Ac4 peptide, 20 nM BRD4-BD2, read-out: BRD4 BD-2 enzyme IC50
Procedure: as §1

KMS.12.BM cells = experiment: KMS.12.BM cell viability assay (ATP quantitation, Cell Titer-GLO); format: cell-based; settings: Homo sapiens, 72 h, 3 days, concentration required for 50% cell death, read-out: KMS cellular IC50
Procedure: KMS.12.BM cell line (human myeloma) was purchased from JCRB (Osaka, Japan) and maintained in RPMI with 10% FBS culture medium. To measure the cytotoxic activity of the compounds through ATP quantitation, the KMS.12.BM cells are plated in the RPMI culture medium at 5000 cells/well/per 100 μL into a 96-well polystyrene clear black tissue culture plate (Greiner-bio-one through VWR, NJ), in the presence or absence of a concentration range of test compounds. After 3 days, […] Cell Titer-GLO Luminescent (Promega, Madison, Wis.) cell culture agent is added to each well for 10 minutes at room temperature to stabilize the luminescent signal. This determines the number of viable cells in culture based on quantitation of the ATP present, which signals the presence of metabolically active cells. Luminescence is measured with the Top Count 384 (Packard Bioscience through Perkin Elmer, Boston, Mass.). Compound inhibition is determined relative to cells cultured with no drug and the IC50 is reported as the compound concentration required for 50% cell death. IC50 data for the Examples is presented in Table 2 as determined by Assay B1.

Row | IC50 (BRD4-BD1) | IC50 (C-myc in KMS.12.BM cells) | IC50 (BRD4-BD2) | Compound | IC50 (KMS.12.BM cells)
1 | ≤ 0.1 µM | ≤ 1 µM | ≤ 0.1 µM | Cc1nc2cc(Oc3ccc(F)cc3F)c(-c3cn(C)c(=O)c4[nH]ccc34)cc2[nH]1 [Example 6, 4-[5-(2,4-Difluorophenoxy)-2-methyl-1H-benzimidazol-6-yl]-6-methyl-1,6-dihydro-7H-pyrrolo[2,3-c]pyridin-7-one trifluoroacetate] | ≤ 1 µM
2 | ≤ 0.1 µM |  | ≤ 0.1 µM | Cn1cc(-c2cc3[nH]c(CCC(=O)O)nc3cc2OCC2CCC2)c2cc[nH]c2c1=O [Example 22, Ammonium 3-[5-(cyclobutylmethoxy)-6-(6-methyl-7-oxo-6,7-dihydro-1H-pyrrolo[2,3-c]pyridin-4-yl)-1H-benzimidazol-2-yl]propanoate] | 1 to 10 µM
3 | ≤ 0.1 µM | ≤ 1 µM | ≤ 0.1 µM | Cn1cc(-c2cc3ncn(C)c3cc2Oc2ccc(F)cc2F)c2cc[nH]c2c1=O [Example 3, 4-[6-(2,4-Difluorophenoxy)-1-methyl-1H-benzimidazol-5-yl]-6-methyl-1,6-dihydro-7H-pyrrolo[2,3-c]pyridin-7-one] | ≤ 1 µM
4 | ≤ 0.1 µM | ≤ 1 µM | ≤ 0.1 µM | Cn1cc(-c2cc3c(cc2Oc2ccc(F)cc2F)n(C)c(=O)n3C)c2cn[nH]c2c1=O [Example 10, 4-[6-(2,4-Difluorophenoxy)-1,3-dimethyl-2-oxo-2,3-dihydro-1H-benzimidazol-5-yl]-6-methyl-1,6-dihydro-7H-pyrazolo[3,4-c]pyridin-7-one] | ≤ 1 µM
5 | ≤ 0.1 µM | ≤ 1 µM | ≤ 0.1 µM | Cn1cc(-c2cc3[nH]c(=O)n(C)c3cc2Oc2ccc(F)cc2F)c2cc[nH]c2c1=O [Example 2, 6-(2,4-Difluorophenoxy)-1-methyl-5-(6-methyl-7-oxo-6,7-dihydro-1H-pyrrolo[2,3-c]pyridin-4-yl)-1,3-dihydro-2H-benzimidazol-2-one] | ≤ 1 µM
6 | ≤ 0.1 µM | ≤ 1 µM | ≤ 0.1 µM | CC(C)n1cnc2cc(-c3cn(C)c(=O)c4[nH]ccc34)c(OCC3CCC3)cc21 [Example 19, 4-[6-(cyclobutylmethoxy)-1-isopropyl-1H-benzimidazol-5-yl]-6-methyl-1,6-dihydro-7H-pyrrolo[2,3-c]pyridin-7-one] | ≤ 1 µM
7 | 0.1 to 1 µM |  | ≤ 0.1 µM | Cn1cc(-c2cc3c(cc2OCC2CCC2)ncn3Cc2ccccc2)c2cc[nH]c2c1=O [Example 16, 4-[5-(Cyclobutylmethoxy)-1-benzyl-1H-benzimidazol-6-yl]-6-methyl-1,6-dihydro-7H-pyrrolo[2,3-c]pyridin-7-one] | 
8 | ≤ 0.1 µM | ≤ 1 µM | ≤ 0.1 µM | Cn1cc(-c2cc3ncn(C)c3cc2OCC2CCC2)c2cc[nH]c2c1=O [Example 15, 4-[6-(Cyclobutylmethoxy)-1-methyl-1H-benzimidazol-5-yl]-6-methyl-1,6-dihydro-7H-pyrrolo[2,3-c]pyridin-7-one] | ≤ 1 µM
9 | ≤ 0.1 µM | ≤ 1 µM | ≤ 0.1 µM | Cn1cc(-c2cc3[nH]c(=O)[nH]c3cc2Oc2ccc(F)cc2F)c2cc[nH]c2c1=O [Example 1, 5-(2,4-Difluorophenoxy)-6-(6-methyl-7-oxo-6,7-dihydro-1H-pyrrolo[2,3-c]pyridin-4-yl)-1,3-dihydro-2H-benzimidazol-2-one] | ≤ 1 µM

Continued, compound first:

Row | Compound | IC50 (BRD4-BD1) | IC50 (C-myc in KMS.12.BM cells) | IC50 (BRD4-BD2) | IC50 (KMS.12.BM cells)
10 | Cn1cc(-c2cc3[nH]cnc3cc2OCC2CCC2)c2cc[nH]c2c1=O [Example 11, 4-[5-(Cyclobutylmethoxy)-1H-benzimidazol-6-yl]-6-methyl-1,6-dihydro-7H-pyrrolo[2,3-c]pyridin-7-one] | ≤ 0.1 µM | ≤ 1 µM | ≤ 0.1 µM | ≤ 1 µM
11 | Cn1cc(-c2cc3[nH]c(C4CCCC4)nc3cc2OCC2CCC2)c2cc[nH]c2c1=O [Example 21, 4-[5-(Cyclobutylmethoxy)-2-cyclopentyl-1H-benzimidazol-6-yl]-6-methyl-1,6-dihydro-7H-pyrrolo[2,3-c]pyridin-7-one bis(trifluoroacetate)] | ≤ 0.1 µM |  | ≤ 0.1 µM | ≤ 1 µM
12 | Cc1nc2cc(-c3cn(C)c(=O)c4[nH]ccc34)c(Oc3ccc(F)cc3F)cc2n1C [Example 4, 4-[6-(2,4-Difluorophenoxy)-1,2-dimethyl-1H-benzimidazol-5-yl]-6-methyl-1,6-dihydro-7H-pyrrolo[2,3-c]pyridin-7-one] | ≤ 0.1 µM | ≤ 1 µM | ≤ 0.1 µM | ≤ 1 µM
13 | Cn1cc(-c2cc3ncn(Cc4ccccc4)c3cc2OCC2CCC2)c2cc[nH]c2c1=O [Example 17, 4-[6-(Cyclobutylmethoxy)-1-benzyl-1H-benzimidazol-5-yl]-6-methyl-1,6-dihydro-7H-pyrrolo[2,3-c]pyridin-7-one] | ≤ 0.1 µM | ≤ 1 µM | ≤ 0.1 µM | ≤ 1 µM
14 | CCn1cnc2cc(-c3cn(C)c(=O)c4[nH]ccc34)c(OCC3CCC3)cc21 [Example 13, 4-[6-(Cyclobutylmethoxy)-1-ethyl-1H-benzimidazol-5-yl]-6-methyl-1,6-dihydro-7H-pyrrolo[2,3-c]pyridin-7-one] | ≤ 0.1 µM | ≤ 1 µM | ≤ 0.1 µM | ≤ 1 µM
15 | CCn1cnc2cc(OCC3CCC3)c(-c3cn(C)c(=O)c4[nH]ccc34)cc21 [Example 12, 4-[5-(Cyclobutylmethoxy)-1-ethyl-1H-benzimidazol-6-yl]-6-methyl-1,6-dihydro-7H-pyrrolo[2,3-c]pyridin-7-one] | ≤ 0.1 µM |  | ≤ 0.1 µM | ≤ 1 µM
16 | CC(C)n1cnc2cc(OCC3CCC3)c(-c3cn(C)c(=O)c4[nH]ccc34)cc21 [Example 18, 4-[5-(Cyclobutylmethoxy)-1-isopropyl-1H-benzimidazol-6-yl]-6-methyl-1,6-dihydro-7H-pyrrolo[2,3-c]pyridin-7-one] | ≤ 0.1 µM | ≤ 1 µM | ≤ 0.1 µM | ≤ 1 µM
17 | Cn1cc(-c2cc3[nH]c(N4CCCCC4)nc3cc2OCC2CCC2)c2cc[nH]c2c1=O [Example 20, 4-[5-(Cyclobutylmethoxy)-2-piperidin-1-yl-1H-benzimidazol-6-yl]-6-methyl-1,6-dihydro-7H-pyrrolo[2,3-c]pyridin-7-one] | ≤ 0.1 µM | ≤ 1 µM | ≤ 0.1 µM | ≤ 1 µM
18 | Cn1cc(-c2cc3[nH]cnc3cc2Oc2ccc(F)cc2F)c2cn[nH]c2c1=O [Example 9, 4-[6-(2,4-Difluorophenoxy)-1H-benzimidazol-5-yl]-6-methyl-1,6-dihydro-7H-pyrazolo[3,4-c]pyridin-7-one trifluoroacetate] | ≤ 0.1 µM | ≤ 1 µM | ≤ 0.1 µM | ≤ 1 µM
19 | Cn1cc(-c2cc3c(cc2Oc2ccc(F)cc2F)n(C)c(=O)n3C)c2cc[nH]c2c1=O [Example 7, 5-(2,4-Difluorophenoxy)-1,3-dimethyl-6-(6-methyl-7-oxo-6,7-dihydro-1H-pyrrolo[2,3-c]pyridin-4-yl)-1,3-dihydro-2H-benzimidazol-2-one] | 0.1 to 1 µM |  | ≤ 0.1 µM | ≤ 1 µM
20 | Cn1cc(-c2cc3[nH]cnc3cc2Oc2ccc(F)cc2F)c2cc[nH]c2c1=O [Example 5, 4-[5-(2,4-Difluorophenoxy)-1H-benzimidazol-6-yl]-6-methyl-1,6-dihydro-7H-pyrrolo[2,3-c]pyridin-7-one trifluoroacetate] | ≤ 0.1 µM | ≤ 1 µM | ≤ 0.1 µM | ≤ 1 µM
